Laboratory results as given in patent publication US20250002526A1, “PHARMACEUTICAL COMPOSITION HAVING ANTI-CANCER IMMUNOSTIMULATING EFFECT AND/OR IMMUNE CHECKPOINT INHIBITION POTENTIATING EFFECT” (KYUSHU UNIVERSITY, NATIONAL UNIVERSITY CORPORATION, priority 2021, published 2025).
Entries after “also recorded” stand apart in the source; their conditions may differ.

Legend:
E0771-SULT-OVA cells = test: In vivo tumor growth of E0771-SULT-OVA cells with OTII T cell transfer; set-up: species or system mouse; conditions: activated OTII T cells i.v. day 9, cholenoic acid oral days 12, 13 and 14
Protocol: In T cell transfer experiment, activated OTII CD4^+ T cells (2×10^6) and OTI CD8^+ T cells (5×10^5) were intravenously injected into tumor-bearing mice (see experimental results (4)).
Cholenoic acid was suspended in 0.5% (w/v) methylcellulose 400 solution (FUJIFILM Wako Pure Chemical Corporation) at a proportion of 50 mg/ml, and a 200-μl portion (10 mg) of the suspension was orally administered to mice (see experimental results (6)). To examine the effect on the tumor infiltration of OTII cells or OTI T cells, 5 mg of cholenoic acid was orally administered three times at intervals of 6 hours in 2 days before the assay.
CD4^+ T cells or CD8^+ T cells were magnetically selected from the spleen and peripheral lymph nodes of OTII and OTI TCR transgenic mice with Dynabeads mouse CD4 (Invitrogen), and then treated with DETACHaBEAD™ mouse CD4 (Invitrogen) or separated with a CD8a^+ T Cell Isolation Kit (Miltenyi Biotec). […]
The growth of tumors was monitored by measuring the vertical diameters of each tumor with a caliper twice a week and calculating the tumor volumes from the following expression.

[1] = target: T1, recombinant human SULT2B1b protein (Homo sapiens, UniProt O00204); test: SULT assay (in vitro SULT2B1b enzymatic activity measurement); assay type: biochemical
T1 sequence (O00204 1-365): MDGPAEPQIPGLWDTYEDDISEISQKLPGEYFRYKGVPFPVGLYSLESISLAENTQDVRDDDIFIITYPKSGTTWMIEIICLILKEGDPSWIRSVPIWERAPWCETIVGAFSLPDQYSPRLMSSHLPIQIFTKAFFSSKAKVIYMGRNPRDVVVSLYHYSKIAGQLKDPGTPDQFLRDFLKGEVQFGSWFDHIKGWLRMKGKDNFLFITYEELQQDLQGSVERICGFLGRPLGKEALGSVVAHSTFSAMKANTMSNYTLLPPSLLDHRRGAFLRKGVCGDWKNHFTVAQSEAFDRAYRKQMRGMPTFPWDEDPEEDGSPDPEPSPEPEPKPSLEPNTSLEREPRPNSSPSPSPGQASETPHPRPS
Protocol: For screening for a SULT2B1b inhibitor, enzymatic activity measurement for SULT2B1b was carried out by a method described in a previous report (NPL 2) with slight modifications.
The reaction solution (50 μl) was composed of 1 to 5 μg of recombinant human SULT2B1b protein, 10 μM [^3H]cholesterol (approximately 4,000 dpm/pmol), 10 mM Tris-HCl (pH 7.5, containing 5 mM MgCl2) containing 0.1 mM 3′-phosphoadenosine 5′-phosphosulfate (PAPS), 0.2 mM 2-hydroxypropyl-β-cyclodextrin, and 5% (v/v) ethanol. Recombinant human SULT2B1b protein was pre-incubated with 1 μl of a test compound (final concentration: 40 or 200 μM) or DMSO (control) at room temperature for 15 minutes, 2 mM PAPS (2.5 μl) was then added to initiate reaction, the resultant was reacted at 37° C. for 15 minutes, and 0.8 ml of ethanol was added to terminate the reaction.
The solution after the reaction was subjected to thin-layer chromatography (TLC) for separation, and then to a liquid scintillation counter to quantify radiolabeled CS.
From the percentage to the amount ([…]) of radiolabeled CS generated through reaction in the absence of the test compound (DMSO) (control), the SULT2B1b activity (% activity) of SULT2B1b protein in the presence of the test compound was evaluated, and the effect of the test compound to inhibit SULT2B1b-mediated CS production (CS production inhibitory effect) was evaluated.
In enzyme assay, SULT assay was performed with use of cholenoic acid as a compound to be tested at different cholesterol and PAPS concentrations (wherein 0.5 to 1 μg of recombinant human SULT2B1b protein was used, the preincubation time and reaction time were each 10 minutes), and the results were fitted to the Michaelis-Menten equation by using Prism 9 (GraphPad Software, Inc.) to perform enzyme kinetic analysis for the inhibition by cholenoic acid.
SULT assay was performed for the compounds as test compounds by the method described in (14) of “II. Experimental procedure” in Experiment Example 1 to evaluate the SULT2B1b inhibitory effects of the compounds.

## C[C@H](CCC(=O)O)[C@H]1CC[C@H]2[C@@H]3CC=C4C[C@@H](O)CC[C@]4(C)[C@H]3CC[C@]12C [Compound 1, (R)-4-((3S,8S,9S,10R,13R,14S,17R)-3-hydroxy-10,13-dimethyl-2,3,4,7,8,9,10,11,12,13,14,15,16,17-tetradecahydro-1H-cyclopenta[a]phenanthren-17-yl)pentanoic acid]
E0771-SULT-OVA cells
  growth of E0771-SULT-OVA cells / anti-tumor immunity of OTII T cells: recovery of the effect of OTII cell or OTI T cell transplantation; also recorded: the growth of E0771-SULT-OVA cells was suppressed
[1]; Michaelis-Menten / Lineweaver-Burk, 10 μM cholesterol
  inhibition mode with respect to PAPS (sulfate donor): uncompetitively
[1]; Michaelis-Menten / Lineweaver-Burk, 100 μM PAPS
  inhibition mode with respect to cholesterol (substrate): non-competitively
[1]; recombinant human SULT2B1b, read-out: IC50 value (enzyme assay)
  IC50: 24.8 µM
[1]; test compound 200 μM, relative to DMSO control (100%), read-out: in vitro SULT2B1b assay % activity at 200 μM
  activity at 200 µM: 20.6%
